≈ marks a conversion by molar mass, not a printed value. Entries after “also recorded” stand apart in the source; their conditions may differ. Where two headings read alike, the source gives them in different places. Blank lines part the entries; values can stand above or below the compound they belong to.
Legend:
hamster = assay: in vitro luteolytic activity in the hamster compared with PGI2 at equally active antiaggregant doses
platelet aggregation = assay: in vitro inhibitory effect on platelet aggregation induced by 10 μM ADP in platelet rich plasma; type: cell-based; details: for IC50: read-out: in vitro antiaggregant effect IC50 (50% platelet aggregation inhibiting concentration)
From the text: IC50 = 50% platelet aggregation inhibiting concentration.

anaesthetized rat = assay: hypotensive effect on the anaesthetized rat; type: in vivo; details: PGI2 = 100
[1] = product of reaction of PGI2 with acid; cited from earlier work
[2] = acid; enol ether; listed as natural prostacyclin; cited from earlier work
asthmatic patients = details: inhaled; cited from earlier work
man = details: infused in man; cited from earlier work
blood platelet = details: infused in man; cited from earlier work
uterus [3] = details: monkey; cited from earlier work
uterus [4] = details: person; cited from earlier work
test animals = details: cited from earlier work
gastric mucous membrane = details: ulcers induced by e.g. acetyl salicylic acid and indomethacin; test animals, e.g. the rat; cited from earlier work
[5] = antiulcerogenic activity compared with PGI2 at equi-active antiaggregant doses; type: in vivo
[6] = 10 μM ADP, platelet rich plasma

Compound: 5c,13t-11α,15S-dihydroxy-9a-deoxy-9a,7a-homo-dimethylene-16-phenoxy- 17,18,19,20-tetranor,prostacycla-5,13-dienoic acid
- in vitro luteolytic activity relative to PGI2 (hamster): 8 times greater

- in vitro antiaggregant effect IC50 (50% platelet aggregation inhibiting concentration) (platelet aggregation; [6]): 20 ηg/ml
Compound: 5t,13t-11α,15S-dihydroxy-9a-deoxy-9a,7a-homo-dimethylene-prostacycla- 5,13-dienoic acid [(3)]
- hypotensive effect potency ratio (anaesthetized rat): 0.25

Compound: CCCCC[C@H](O)/C=C/[C@@H]1[C@@H](CC(=O)CCCCC(=O)O)[C@@H](O)C[C@H]1O [6-keto-PGF1α]
- biological activity characteristic of natural prostacyclin [1]: almost none of the biological activity

- IC50 (platelet aggregation; [6]): 0.001 µg/mL (≈ 0.00284 µM)
Compound: CCCCC[C@H](O)/C=C/[C@@H]1[C@H]2C/C(=C/CCCC(=O)O)O[C@H]2C[C@H]1O [(1), 6,9α-oxide-11α,15(S)-dihydroxy-prosta-5(Z),13(E)-dienoic acid]
- hypotensive effect potency ratio (anaesthetized rat): 100
- chemical stability of natural prostacyclin [2]: extremely acid sensitive; also recorded: marked chemical instability
- prevention of bronchoconstriction (asthmatic patients): prevents aspecifically induced (e.g. by nebulized water or by effort) bronchocostriction
- hypotensive and vasodilator activity (man): hypotensive and vasodilator activity
- blood platelet anti-aggregant and disaggregant properties (blood platelet): blood platelet anti-aggregant and disaggregant properties
- uterus stimulant action (uterus [3]): uterus stimulant action
- uterus stimulant action (uterus [4]): uterus stimulant action
- luteolytic activity (test animals): luteolytic activity
- protection of gastric mucous membrane from ulcers (gastric mucous membrane): able to protect the gastric mucous membrane from ulcers

Compound: CCCCC[C@H](O)/C=C/[C@@H]1[C@H]2C/C(=C/CCCC(=O)O)C[C@H]2C[C@H]1O [(2), 5t,13t-11α,15S-dihydroxy-9a-deoxy-9a-methylene-prostacycla-5,13-dienoic acid]
- IC50 (platelet aggregation; Platelet): 0.025 µg/mL (≈ 0.0713 µM)
- hypotensive effect potency ratio (anaesthetized rat): 1.15

Compound: dl-5,13t-11α,15S-dihydroxy-9a-deoxy-7-nor-methylene-prostacycla-5,13-dienoic acid
- antiulcerogenic activity relative to PGI2 [5]: ten times greater

Compound: dl-5,13t-11α,15S-dihydroxy-9a-deoxy-9a,9b-dimethylene-17-cyclohexyl- 18,19,20-trinor-prostacycla-5,13-dienoic acid
- in vitro luteolytic activity relative to PGI2 (hamster): 5 times greater
